Laboratory results as given in EP0186807A2, “Anthracycline derivatives, their microbiological preparation and their use as medicines” (HOECHST AKTIENGESELLSCHAFT, priority 1984, dated 1986).
Converted amounts (≈) assume the structure as drawn.

Legend:
[1] = system: Mäuse-L 1210-Leukämiezellen; assay: Stem cell test (colony formation in soft agar, continuous incubation); format: cell-based; conditions: Mus musculus, L1210, 168 h, read-out: IC50 Stammzellentest 7 Tage Inkubation
Text: (§1) Die Ermittlung der zytostatischen Aktivität der Kesarirhodine erfolgte in der nachfolgend beschriebenen Weise an Mäuse-L 1210-Leukämiezellen.
Diese Methode dient zum Nachweis der Wirkung der Prüfsubstanz auf das Wachstum von Leukämiezellen über mehrere Generationen (da die Dauer eines Zellzyklus 10 - 12 Stunden beträgt, werden innerhalb des Untersuchungszeitraumes von 7 Tagen rund 14 aufeinanderfolgende Generationen erfaßt).
In diesem Test beruht die Wirkung von zytotoxischen Substanzen auf der Verminderung der Zahl beobachtbarer Kolonien im Vergleich zur unbehandelten Kontrolle. Es wird folgende Methodik verwendet: • Pro Platte werden 500 L 1210-Leukämiezellen verwendet. Die Experimente werden bei kontinuierlicher Inkubation mit verschiedenen Konzentrationen der Prüfsubstanz durchgeführt, wobei die Substanz vor dem Aufbringen der Zellen auf die Platte der oberen Agarschicht beigemischt wird. Die Platten werden 7 Tage lang in einem Brutschrank gelagert (37°C, 5 % C023 95 % relative Luftfeuchtigkeit). Anschließend wird die Anzahl der entstandenen Kolonien mit einem Durchmesser von mehr als 60 um mit einem umgekehrten Mikroskop gezählt. Die Resultate werden als Prozentsatz der auf den behandelten Platten gebildeten Kolonien im Vergleich zu denen der unbehandelten Kontrolle ausgedrückt. Mit den ermittelten Werten wird eine Dosiswirkungskurve gezeichnet, aus welcher der IC50-Wert graphisch ermittelt wird. Die IC50-Werte der Kesarirhodine werden in Tabelle III mit denen von Adriamycin verglichen.

[2] = system: Mäuse-L 1210-Leukämiezellen; assay: Proliferation test (14C-thymidine incorporation); format: cell-based; conditions: Mus musculus, read-out: IC50 Proliferations-test
Text: as §1
Bei dieser in vitro-Methode ist es nach der Inkubation der Zellen mit verschiedenen Konzentrationen der Prüfsubstanz möglich, die eingebaute Menge eines radioaktiv markierten DNS-Vorläufers (z.B. 14C-Thymidin) in einer wachsenden Zelle zu bestimmen. Als Kontrolle dienen dem gleichen Verfahren unterzogenen unbehandelte L 1210-Zellen. Die Methode wird nachstehend kurz zusammengefaßt: • L 1210-Zellen in exponentieller Wachstumsphase (5 x 10^3/ml in RPMI 1640) werden 72 Stunden lang (37°C, 5 % C02, 95 % relative Feuchtigkeit) in einer 96-Loch-Mikrotiterplatte mit unterschiedlichen Konzentrationen der Prüfsubstanz inkubiert. Als Kontrollen werden Zellen verwendet, die lediglich mit dem frischen Medium in Berührung gebracht werden. Es werden vier Löcher für jede Medikamentenkonzentration und Kontrolle angelegt. Nach 65 Stunden werden 50 µl 14C Thymidin (1,5 oCi/ml) zugefügt, um die Zell-DNS zu markieren. Nach 7 Stunden Inkubation werden die Zellen geerntet, die DNS mit 5 % Trichloressigsäure abgetrennt und mit Wasser und Methanol gewaschen. Nach dem Trocknen bei 50°C wird die Szintillationszahl mit 5 ml Szintillationsflüssigkeit bestimmt.
Die Ergebnisse werden als Quotient des Szintillationsindex nach der Inkubation mit den Testsubstanzen mit dem der Kontrollsubstanz ausgedrückt. Mit den ermittelten Werten wird eine Dosiswirkungskurve gezeichnet und der Wert IC50 d.h. die Konzentration der Prüfsubstanz, die den Einbau von markiertem Thymidin im Vergleich zur Kontrolle um 50 % hemmt, graphisch ermittelt. Die IC50-Werte sind denen von Adriamycin in der folgenden Tabelle III gegenübergestellt.

Bacillus subtilis = assay: Bacteriostatic activity, agar well diffusion (inhibition zone); format: cell-based; conditions: 1 mg/ml solution in a 6 mm well in agar containing Bacillus subtilis; read-out: Hofdurchmesser
Description: (§2) Bestimmt wurde die bakteriostatische Wirkung von Kesarirhodin. Die Resultate, die als Durchmesser (in Millimetern) der Hemmhöfe, erzeugt durch die Substanz in Form einer 1 mg/ml-Lösung in einem Loch von 6 mm Durchmesser in Agar, das den Testorganismus enthält, angegeben sind, werden in der nachfolgenden Tabelle, Tabelle II, dargestellt. Kesarirhodine sind gegen gram-positive Bakterien und Pilze wirksam und können deshalb als Antibiotika zur Behandlung von Pilz- und Staphylokokken-Infektionen, Diphterie, Pneumonie usw. eingesetzt werden.

[3] = system: Staphylococcus aureus 209P; assay: as above; format: cell-based; conditions: 1 mg/ml solution in a 6 mm well in agar containing Staphylococcus aureus 209P; read-out: Hofdurchmesser
Description: as §2

Candida albicans = assay: Agar well diffusion (inhibition zone); format: cell-based; conditions: 1 mg/ml solution in a 6 mm well in agar containing Candida albicans; read-out: Hofdurchmesser
Description: as §2

[4] = Solubility in solvents (qualitative); format: physicochemical
[5] = 500 L 1210 cells per plate, soft agar, continuous incubation 7 days, colonies > 60 µm
[6] = L1210, L 1210 cells, 72 h incubation, 14C-thymidine incorporation, read graphically from dose-response curve
[7] = in Hexan (n-Hexan) und Petroläther (Petroleumäther)
[8] = in Methanol, Aceton, Äthylacetat, Chloroform und schwachen Säuren

Structure (SMILES)	IC50 [1] [µg/mL]	IC50 ([2]; L1210, 72 h) [µg/mL]	IC50 [1, 5] [µg/mL]	IC50 [2, 6] [µg/mL]	zone of inhibition at 1000 µg/mL (Bacillus subtilis) [mm]	zone of inhibition at 1000 µg/mL [3] [mm]	zone of inhibition at 1000 µg/mL (Candida albicans) [mm]	Löslichkeit [4, 7]	Löslichkeit [4, 8]
COc1cccc2c1C(=O)c1c(O)c3c(c(O)c1C2=O)C[C@@](O)(C(=O)CO)C[C@@H]3O[C@H]1C[C@H](N)[C@H](O)[C@H](C)O1 [Adriamycin, reference compound]	0.022 (≈ 0.0405 µM)	0.006 (≈ 0.011 µM)							
CC[C@]1(O)Cc2c(O)c3c(c(O)c2[C@@H](O[C@H]2C[C@H](N(C)C)[C@H](O[C@H]4CC[C@H](O[C@H]5CC[C@H](O)[C@H](C)O5)[C@H](C)O4)[C@H](C)O2)C1)C(=O)c1c(O)cccc1C3=O [Kesarirhodin B]			0.028 (≈ 0.037 µM)	0.1 (≈ 0.132 µM)	17	17	20	wenig löslich	löslich
CC[C@]1(O)Cc2c(O)c3c(c(O)c2[C@@H](O[C@H]2C[C@H](N(C)C)[C@H](O[C@H]4C[C@H](O)[C@H](O[C@H]5CC[C@H](O)[C@H](C)O5)[C@H](C)O4)[C@H](C)O2)C1)C(=O)c1c(O)cccc1C3=O [Kesarirhodin A]			0.031 (≈ 0.0402 µM)	0.031 (≈ 0.0402 µM)	17	15	20	wenig löslich	löslich
